Measured values taken from patent US20230122932A1, “NEW SEX PHEROMONE COMPONENTS FOR THE FALL ARMYWORM, SPODOPTERA FRUGIPERDA” (North Carolina State University, priority 2020, published 2023).
Entries after “also recorded” stand apart in the source; their conditions may differ.

How the values were obtained:
[1] = system: FAW males; assay: No-choice linear olfactometer behavioral assay; assay type: in vivo, Spodoptera frugiperda
Description: Behavioral Assay: A no-choice linear olfactometer assay was used to test the behavior of FAW males to different formulations. The olfactometer consists of a linear Plexiglas® tube (n=6 cm i.d., length=145 cm) that was connected to an air pump that generated an internal airflow speed of 0.1 m/s. A short Plexiglas® chamber filled with activated charcoal was connected to the opposite end of the olfactometer to filter the inward air. […] An aliquot of […] was added to a piece of filter paper and solvent was left to evaporate for 30 min at room temperature. Filter papers were introduced to the olfactometer through an opening (0=2 cm) on the top of the olfactometer, 4 cm away from the charcoal filter. Filter papers were tested only once. Moths were tested for 5 minutes and the sequence of their behavioral response was recorded as: activation (wing fanning and start moving upwind), reaching the half-way point of the olfactometer (HW), close approach to the odor source (CA), and source contact (contact). The experiment was conducted 4-7 hours into the scotophase.
The tested formulations were: […]
(§1) Statistical analysis: All statistical analyses were performed in R (version 3.5.1). Behavioral responses of male FAW to formulations in the olfactometer were analyzed by binomial generalized linear model. Numbers of male FAW catches in the same day were combined per treatment and analyzed by Poisson generalized linear model (GLM). Treatments that had no catches were not included in the analyses.

[2] = system: male FAW; assay: Field test with commercial lures plus nonanal, Hartstack traps in sorghum crop; assay type: in vivo, Spodoptera frugiperda
Description: Field test with commercial formulation: The effect of adding nonanal to commercial formulations was tested in a sorghum crop for five days. Lures were purchased from two commercial suppliers, referred to herein as “Commercial Supplier A” (L105A from Seemly Biologicals Inc., Billings, Mont., United States of America) and “Commercial Supplier B” (FAW 3143 from Trécé, Adair, Okla., United States of America). These lures were formulated by the respective companies in rubber septa. Nonanal was formulated in the same way as described above and a straightened metal paper clip held together both the nonanal-loaded vial and the commercial lure. This set was installed inside a Hartstack trap and traps were positioned in the same manner described above. The attraction of male FAW to the following treatments was tested: • Commercial Supplier B lure combined with clean paraffin oil in vial dispenser (no nonanal). • Commercial. Supplier B lure combined with 20 μg of nonanal in vial dispenser. • Commercial Supplier A lure combined with clean paraffin oil in vial dispenser (no nonanal). • Commercial Supplier A lure combined with 20 μg of nonanal in vial dispenser.
A second study was conducted in the same crop over a second five-day period, aimed to investigate different doses of nominal in combination with Commercial Supplier A lures. Using the same procedure described above, the attraction of male FAW was tested to the following treatments: • Commercial. Supplier A lure combined with clean paraffin oil in vial dispenser (no nonanal). • Commercial Supplier A lure combined with 10 μg of nonanal in vial dispenser. • Commercial Supplier A lure combined with 20 μg of nonanal in vial dispenser. • Commercial Supplier A lure combined with 40 μg of nonanal in vial dispenser. • Commercial Supplier A lure combined with 80 μg of nonanal in vial dispenser.
as §1

[3] = system: antenna of FAW males; assay: GC-EAD electrophysiology of female pheromone gland extract on male antenna; set-up: species or system Spodoptera frugiperda; settings: 1 μl female pheromone gland extract
Description: Electrophysiology: The sex pheromone gland of ten 3-4-day old FAW females was dissected and placed in a glass insert containing 30 μl hexane (SupraSolv®; MilliporeSigma, Burlington, Mass., United States of America). After 10 min, the hexane extract was transferred to a second insert and concentrated down to 10 μl under a gentle flow of nitrogen. A gas chromatograph coupled to an electroantennogram detector (GC-EAD) was used to identify biologically active compounds that are perceived by the antenna of FAW males, since the antenna is the main olfactory organ of insects. The GC separates chemical mixes into individual compounds and directs them to the insect antenna, which is connected to an amplifier, the EAD. In parallel to the GC, the electrophysiological response of the antenna is recorded to identify the active compounds. An aliquot of 1 μl of the pheromone gland extract was injected in the GC-EAD where a male FAW antenna was mounted. Clean hexane that was handled in the same manner without glands was used as control.

[4] = system: male FAW; assay: Field assays, Hartstack traps in cotton field, 2-component pheromone mix with nonanal; assay type: in vivo, Spodoptera frugiperda
Description: Field Assays: Formulations were tested under field conditions. Z9-14:OAc and Z7-12:OAc were diluted in hexane and 100 μL of the solution containing 100 μg and 0.58 μg of the respective compounds was loaded to a rubber septum (11 mm; Wheaton, DWK Life Sciences, Millville, N.J., United States of America). The septum was left inside a fume hood for 15 hr for the solvent to evaporate and then tested in field assays. Nonanal was diluted in paraffin oil and 100 μL of the solution was transferred to a vial dispenser. The solution contained either 0.1 μg or 1 μg, which corresponded to 0.1% and 1% of the amount of Z9-14:OAc. This dispenser constituted a 2 ml borosilicate vial covered with aluminum foil and contained 50 mg of deactivated glass wool. The vial was loaded with a nonanal solution and capped. […] A straightened metal paper clip pierced through the small cup of a pheromone-loaded rubber septum and was tied around the neck of a nonanal-loaded vial. This set was held by a steel alligator clip installed inside a Hartstack trap. We tested the attraction of male FAW to the following treatments: • Control: clean hexane loaded into a rubber septum and clean paraffin oil in a, vial dispenser • Pheromone mix: 100 μj of Z9-14:OAc and 0.58 μg of Z7-12:OAc in rubber septum and clean paraffin oil in vial dispenser • Pheromone 4-0.1% Nonanal: Pheromone mix in rubber septum and 0.1 μg of nonanal in vial dispenser • Pheromone+1% Nonanal: Pheromone mix in rubber septum and 1 μg of nonanal in vial dispenser
The Hartstack trap consisted of a conical body made of metal mesh with a removal top (H: 15 cm, ø=14 cm) in which males were trapped. Traps stood over the canopy of crops on rebars (L: 1.5 m) that were fixed to the ground. Traps were set for one week in a cotton field along the crop row, 15 m apart. Each experimental block consisted of 4 traps 15 m from each other. The next block was set 15 m from the first block and parallel to it. Each treatment was replicated once within a block and assigned randomly to trap positions. The number of trapped male FAW moths and other species were counted daily and traps were rotated.
A second study repeated the same procedure described above but increased the amount of Z9-14:OAc and Z7-12:OAc in the mix to 1000 μg and 5.8 μg, respectively, and nonanal to 10, 20 and 40 μg. The attraction of male FAW was tested to the following treatments: • Control: clean hexane loaded into a rubber septum and clean paraffin oil loaded into a vial dispenser • Pheromone mix: 1000 μg of Z9-14:OAc and 5.8 μg of Z7-12:OAc in rubber septum and clean paraffin oil in vial dispenser (no nonanal). • Pheromone 4-1% Nonanal: Pheromone mix in rubber septum and 10 μg of nonanal in vial dispenser. • Pheromone+2% Nonanal: Pheromone mix in rubber septum and 20 μg of nonanal in vial dispenser. • Pheromone+4% Nonanal: Pheromone mix in rubber septum and 40 μg of nonanal in vial dispenser.
as §1

[5] = nonanal at all doses (0.05, 0.1, 1% relative to 100 ng Z9-14:OAc) added to 2-component formulation, N=15

CCCCCCCCC=O [nonanal]
males that reached the pheromone source ([1]; 1% nonanal (1 ng) added to 2-component formulation (Formulation #4), N=15): 100%
effect on attraction / pheromone-triggered response of males ([1]; nonanal 0.05, 0.1, 1% added to 2-component formulation, olfactometer): enhanced the attraction of male FAW
males activated [1, 5]: 100%
males that reached the pheromone source [1, 5]: more than 66%
increase of trap catches compared to commercial lure alone ([2]; 20 μg (1%) nonanal added to Commercial Supplier A lure, sorghum field): 46.5%
increase of trap catches compared to commercial lure alone ([2]; 20 μg (1%) nonanal added to Commercial Supplier B lure, sorghum field): 53%
number of males caught per day ([2]; 20 μg nonanal added to Commercial Supplier A and B lures, sorghum field, four traps per treatment): significantly increased the number of males caught per day compared to the commercial lures alone
number of males caught per day ([2]; second study (FIG. 6): nonanal added to Commercial Supplier A (Scentry) lure, sorghum field, five days): significantly increased the number of males caught compared to the commercial lures alone
number of males caught compared to the commercial lure alone ([2]; second study: 80 μg (4%) nonanal added to Commercial Supplier A lure, sorghum field): 52.4%
trap catches ([2]; second study: 1% nonanal added to Commercial Supplier A lure): only slightly increased the trap catches
trap catches ([2]; second study: 2% nonanal added to Commercial Supplier A lure): only slightly increased the trap catches
trap catch ([2]; second study: 8% nonanal added to Commercial Supplier A lure): decreased trap catch
antennal (EAD) response [3]: active; also recorded: robust antennal responses
trap catch ([4]; 0.1% nonanal (0.1 μg) added to 100 μg Z9-14:OAc + 0.58 μg Z7-12:OAc, cotton field): intermediate trap catch between the pheromone mix alone and with the addition of 1% nonanal
improvement of male catches compared to the pheromone mix alone ([4]; 1% nonanal (1 μg) added to 100 μg Z9-14:OAc + 0.58 μg Z7-12:OAc, cotton field): 155%
number of males caught per day ([4]; 1% nonanal added to 100 μg Z9-14:OAc + 0.58 μg Z7-12:OAc, cotton field, three traps, six days): highest number of males caught
nonanal percentage (compared to Z9-14:OAc) that rendered the highest number of trap catches in the field ([4]; field assays): 1 % (weight/weight)
numbers of male FAW in traps ([4]; nonanal 0.1 and 1 μg added to 100 μg Z9-14:OAc + 0.58 μg Z7-12:OAc, cotton field): significantly increased the numbers of male FAW in traps
male catches per day, more than the pheromone alone ([4]; second assay: 1% nonanal added to 1 mg Z9-14:OAc + 5 μg Z7-12:OAc, cotton field): 100%
number of males caught per day ([4]; second assay: 1% nonanal added to pheromone mix (1 mg Z9-14:OAc), cotton field, nine days): highest number of male catches per day; also recorded: highest number of males caught
number of males caught ([4]; second assay: 2% nonanal added to pheromone mix (1 mg Z9-14:OAc), cotton field): decreased the number of males caught and was not significantly different from the pheromone formulation alone
number of males caught ([4]; second assay: 4% nonanal added to pheromone mix (1 mg Z9-14:OAc), cotton field): decreased the number of males caught and was not significantly different from the pheromone formulation alone
trap catch ([4]; second assay: nonanal alone (1% and 4%), no pheromone mix, cotton field): did not yield any catch; also recorded: did not catch any males
